Reference: ChEMBL document CHEMBL3879885 (2006)

These molecules were tested against T1, Potassium voltage-gated channel subfamily A member 3 (Homo sapiens, UniProt P22001) (assay: Inhibition of Kv1.3 (unknown origin)). Conditions: not given.
Assay type: single protein

T1 sequence (P22001 whole entry): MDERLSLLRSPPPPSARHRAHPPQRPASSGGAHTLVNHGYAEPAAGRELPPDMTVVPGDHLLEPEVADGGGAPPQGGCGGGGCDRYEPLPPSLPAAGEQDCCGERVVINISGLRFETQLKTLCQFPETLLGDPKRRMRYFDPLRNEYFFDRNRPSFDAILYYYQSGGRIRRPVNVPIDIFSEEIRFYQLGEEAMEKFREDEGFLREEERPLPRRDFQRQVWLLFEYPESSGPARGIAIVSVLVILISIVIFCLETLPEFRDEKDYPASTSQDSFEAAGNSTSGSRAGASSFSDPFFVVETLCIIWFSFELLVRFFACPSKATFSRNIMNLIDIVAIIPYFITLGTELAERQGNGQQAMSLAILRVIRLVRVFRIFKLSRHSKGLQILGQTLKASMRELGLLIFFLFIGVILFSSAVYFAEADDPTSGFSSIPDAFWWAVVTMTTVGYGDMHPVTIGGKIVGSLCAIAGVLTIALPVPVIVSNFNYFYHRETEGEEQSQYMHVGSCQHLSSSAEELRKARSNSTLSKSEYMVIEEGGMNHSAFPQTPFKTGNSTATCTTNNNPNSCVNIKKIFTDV

Compound | EC50 [nM]
O=c1ccc2c(OCCCOCc3ccccc3)c3ccoc3cc2o1 | 50
COc1cccc(OCCCOc2c3ccoc3cc3oc(=O)ccc23)c1 | 45
COc1cccc(OCCCCOc2c3ccoc3cc3oc(=O)ccc23)c1 | 21
CCc1ccc(OCCCCCOc2c3ccoc3cc3oc(=O)ccc23)cc1 | 35
O=c1ccc2c(OCCCCOc3cccc(C(F)(F)F)c3)c3ccoc3cc2o1 | 65
N#CCCCOc1c2ccoc2cc2oc(=O)ccc12 | 5000
COc1cc(OC)cc(OCCCCCOc2c3ccoc3cc3oc(=O)ccc23)c1 | 32
N#CCCCCOc1c2occc2cc2ccc(=O)oc12 | 5000
Cc1nnc(SCCCCOc2c3ccoc3cc3oc(=O)ccc23)s1 | 175
COc1cc(OC)cc(OCCCOc2c3ccoc3cc3oc(=O)ccc23)c1 | 75
N#CCCCOc1c2occc2cc2ccc(=O)oc12 | 5000
O=C(CCCOc1c2ccoc2cc2oc(=O)ccc12)c1ccccc1 | 31
COc1ccc2sc(SCCCCOc3c4ccoc4cc4oc(=O)ccc34)nc2c1 | 35
O=c1ccc2ccc(OCCCCOc3c4ccoc4cc4oc(=O)ccc34)cc2o1 | 125
Cc1ccc(OCCCCOc2c3ccoc3cc3oc(=O)ccc23)c([N+](=O)[O-])c1 | 700
COc1cc(OC)cc(OCCCCOc2c3ccoc3cc3oc(=O)ccc23)c1 | 120
O=c1ccc2c(OCCCCn3cccn3)c3ccoc3cc2o1 | 450
N#CCCCCOc1c2ccoc2cc2oc(=O)ccc12 | 1300
O=c1ccc2c(OCCCCOCc3ccccc3)c3ccoc3cc2o1 | 49
O=c1ccc2c(OCCCCSc3ncccn3)c3ccoc3cc2o1 | 50

Now from value to molecule:

EC50 [nM] | Compound
12 | O=c1ccc2c(OCCCCOc3ccc4ccccc4c3)c3ccoc3cc2o1
14 | CCc1ccc(OCCCOc2c3ccoc3cc3oc(=O)ccc23)cc1
15 | O=c1ccc2c(OCCCOc3ccccc3)c3ccoc3cc2o1
8 | COc1ccc(OCCCCOc2c3ccoc3cc3oc(=O)ccc23)cc1
15 | O=c1ccc2c(OCCCCCOc3ccccc3)c3ccoc3cc2o1
16 | O=c1ccc2c(OCCCCOc3ccc(Oc4ccccc4)cc3)c3ccoc3cc2o1
13 | CCc1ccc(OCCCCOc2c3ccoc3cc3oc(=O)ccc23)cc1
7 | Cc1ccc(OCCCCOc2c3ccoc3cc3oc(=O)ccc23)cc1
5 | O=c1ccc2c(OCCCCOc3ccc(Cl)cc3)c3ccoc3cc2o1
7 | O=c1ccc2c(OCCCCOc3ccc([N+](=O)[O-])cc3)c3ccoc3cc2o1
10 | O=c1ccc2c(OCCCOc3ccc(Cl)cc3)c3ccoc3cc2o1
20 | O=c1ccc2c(OCCCCOc3cccc4ccccc34)c3ccoc3cc2o1
10 | O=c1ccc2c(OCCOCc3ccccc3)c3ccoc3cc2o1

The molecules below were run against T1, Potassium voltage-gated channel subfamily A member 3 (assay: Ratio of IC50 for Kv1.3 in human central memory T cells to IC50 for Kv1.3 in CD4+ MBP-specific multiple sclerosis patient effector memory T lymphocytes stimulated with 3 times MBP). Conditions: T-cell.
Assay type: cell-based

Compound | Ratio IC50
CC[C@H](C)[C@@H]1NC(=O)[C@@H](NC(=O)[C@H](CO)NC(=O)[C@@H](N)CCCNC(=N)N)CSSC[C@@H](C(=O)O)NC(=O)[C@H]([C@@H](C)O)NC(=O)CNC(=O)[C@@H]2CSSC[C@@H]3NC(=O)[C@H](CCC(N)=O)NC(=O)[C@H](Cc4ccccc4)NC(=O)[C@H](C)NC(=O)[C@H]([C@@H](C)O)NC(=O)[C@H](CSSC[C@H](NC(=O)[C@H](Cc4ccccc4)NC(=O)[C@@H](CO)NC(=O)[C@@H](CC(C)C)NC(=O)[C@H](CCCNC(=N)N)NC(=O)[C@H](Cc4ccc(O)cc4)NC(=O)[C@H](CCCCN)NC(=O)[C@H](CCSC)NC(=O)[C@H](CO)NC(=O)[C@H](Cc4cnc[nH]4)NC(=O)[C@H](CCCCN)NC3=O)C(=O)N[C@@H](CCCNC(=N)N)C(=O)N[C@@H](CCCCN)C(=O)N[C@@H]([C@@H](C)O)C(=O)N2)NC(=O)[C@H](CCCNC(=N)N)NC(=O)[C@H](CO)NC(=O)[C@H](CCCCN)NC(=O)[C@@H]2CCCN2C(=O)[C@H]([C@@H](C)CC)NC(=O)[C@H]([C@@H](C)O)NC(=O)[C@H](CC(=O)O)NC1=O | 10

What follows are molecules tested against Potassium voltage-gated channel subfamily A member 2 (Homo sapiens, UniProt P16389) (assay: Inhibition of Kv1.2 (unknown origin)). Conditions: not given.
Potassium voltage-gated channel subfamily A member 2, sequence (P16389 whole entry): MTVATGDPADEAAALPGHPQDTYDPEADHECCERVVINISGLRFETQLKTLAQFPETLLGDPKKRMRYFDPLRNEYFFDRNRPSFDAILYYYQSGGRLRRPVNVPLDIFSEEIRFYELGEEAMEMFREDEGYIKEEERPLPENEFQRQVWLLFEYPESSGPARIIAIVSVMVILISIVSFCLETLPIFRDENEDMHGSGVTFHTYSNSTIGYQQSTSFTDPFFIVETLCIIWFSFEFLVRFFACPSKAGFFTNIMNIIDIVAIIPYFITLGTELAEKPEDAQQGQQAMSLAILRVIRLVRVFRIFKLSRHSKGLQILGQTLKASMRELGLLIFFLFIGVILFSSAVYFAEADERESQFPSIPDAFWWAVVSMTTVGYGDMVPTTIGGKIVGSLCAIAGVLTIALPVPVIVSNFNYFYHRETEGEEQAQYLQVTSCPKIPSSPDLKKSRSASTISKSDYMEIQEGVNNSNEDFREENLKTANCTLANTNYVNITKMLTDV

EC50 [nM] | Compound
250 | O=c1ccc2c(OCCCCOc3ccccc3)c3ccoc3cc2o1
